Assay results taken from the NIST ThermoML archive (doi:10.1016/j.jct.2016.05.017).
Where “and” joins values, the source holds several entries; their conditions need not be identical. Identical values can stand only once.

What was measured:
[1] = for vapor or sublimation pressure: Transpiration method; for Triple point temperature: DSC
[2] = Molar enthalpy of transition or fusion; conditions: Crystal; DSC

CC(=O)C12CC3CC(CC(C3)C1)C2 [1-adamantyl methyl ketone]
[1]
Conditions	vapor or sublimation pressure
291.6 K, Crystal	0.00076 kPa
293.7 K, Crystal	0.00099 kPa
296.5 K, Crystal	0.00136 kPa
298.4 K, Crystal	0.00174 kPa
303.3 K, Crystal	0.00299 kPa
308.2 K, Crystal	0.00505 kPa
308.4 K, Crystal	0.00506 kPa
313.2 K, Crystal	0.0085 kPa
316.2 K, Crystal	0.01174 kPa
318.2 K, Crystal	0.01406 kPa
318.7 K, Crystal	0.01511 kPa
320.3 K, Crystal	0.01713 kPa
323.3 K, Crystal	0.02368 kPa
331.3 K, Liquid	0.0399 kPa and 0.0404 kPa
333.2 K, Liquid	0.04637 kPa and 0.0468 kPa
335.2 K, Liquid	0.0516 kPa
338.2 K, Liquid	0.0633 kPa
341.2 K, Liquid	0.0767 kPa
343.1 K, Liquid	0.08701 kPa
346.2 K, Liquid	0.1025 kPa
348.1 K, Liquid	0.1221 kPa
348.3 K, Liquid	0.1231 kPa
351.7 K, Liquid	0.1433 kPa
352.1 K, Liquid	0.1514 kPa
353.1 K, Liquid	0.1567 kPa
355.5 K, Liquid	0.1853 kPa
356 K, Liquid	0.1912 kPa
358.1 K, Liquid	0.2111 kPa
358.2 K, Liquid	0.2186 kPa
360.4 K, Liquid	0.2451 kPa
363.1 K, Liquid	0.2835 kPa

Conditions	Triple point temperature [K]
[1], Crystal	325.2

Conditions	Molar enthalpy of transition or fusion [kcal/mol]
[2]	4.66

O=C(O)C12CC3CC(CC(C3)C1)C2 [tricyclo[3.3.1.1(3,7)]decane-1-carboxylic acid]
[1], Crystal
Conditions	vapor or sublimation pressure [kPa]
345.2 K	0.0009
348.2 K	0.00122
353.2 K	0.00193
356.7 K	0.00266
360.2 K	0.00382
362.2 K	0.00453
365.2 K	0.00575
367.7 K	0.00692
370.2 K	0.00896
370.3 K	0.00895
373.2 K	0.01102
375.2 K	0.01263
377.3 K	0.01524
377.7 K	0.01587
380.2 K	0.01902
382.2 K	0.02303
385.3 K	0.02961

Conditions	Triple point temperature [K]
[1], Crystal	449.1

Conditions	Molar enthalpy of transition or fusion [kcal/mol]
[2]	4.21

O=C1C2CC3CC(C2)CC1C3 [2-adamantanone]
[1], Crystal
Conditions	vapor or sublimation pressure [kPa]
293.5 K	0.00109
296.4 K	0.00142
297.4 K	0.00156
298.5 K	0.00172
300.4 K	0.00199
303.4 K	0.00258
306.4 K	0.00341
308.4 K	0.00417
313.4 K	0.00608
318.4 K	0.00903
323.4 K	0.01275
328.4 K	0.01873
333.4 K	0.02597
338.5 K	0.03782
343.3 K	0.05432
348.4 K	0.07513
353.3 K	0.09857
358.3 K	0.1302
363.4 K	0.1815
368.4 K	0.2462
373.4 K	0.3099

O=C(O)C1C2CC3CC(C2)CC1C3 (stereo not given) [adamantane-2-carboxylic acid]
[1], Crystal
Conditions	vapor or sublimation pressure
344.3 K	0.00066 kPa
347.3 K	0.00087 kPa
350.3 K	0.00113 kPa
353.4 K	0.00157 kPa
355.4 K	0.0018 kPa
356.4 K	0.00212 kPa
358.4 K	0.00246 kPa
360.4 K	0.00307 kPa
362.4 K	0.00345 kPa
364.4 K	0.00436 kPa
365.8 K	0.0048 kPa
368.3 K	0.00577 kPa
368.4 K	0.00595 kPa
369.4 K	0.00628 kPa
370.4 K	0.00725 kPa
371.4 K	0.00757 kPa
373.4 K	0.00923 kPa
374.4 K	0.00992 kPa
376.4 K	0.01193 kPa
377.4 K	0.01257 kPa and 0.01301 kPa
378.4 K	0.01382 kPa
380.3 K	0.01584 kPa
381.3 K	0.01701 kPa
383.4 K	0.02003 kPa
386.4 K	0.02497 kPa

Conditions	Triple point temperature [K]
[1], Crystal	416.3

Conditions	Molar enthalpy of transition or fusion [kcal/mol]
[2]	2.34
